{"source": "paper PMC11121358", "about": "“Redox Properties of Bacillus subtilis Ferredoxin:NADP^+ Oxidoreductase: Potentiometric Characteristics and Reactions with Pro-Oxidant Xenobiotics” (International Journal of Molecular Sciences, 2024)", "molecular_target": "T1, Bacillus subtilis ferredoxin:NADP^+ oxidoreductase (BsFNR) (Bacillus subtilis, UniProt O05268)", "T1 construct": "gene yumC", "T1 sequence (O05268 whole entry)": "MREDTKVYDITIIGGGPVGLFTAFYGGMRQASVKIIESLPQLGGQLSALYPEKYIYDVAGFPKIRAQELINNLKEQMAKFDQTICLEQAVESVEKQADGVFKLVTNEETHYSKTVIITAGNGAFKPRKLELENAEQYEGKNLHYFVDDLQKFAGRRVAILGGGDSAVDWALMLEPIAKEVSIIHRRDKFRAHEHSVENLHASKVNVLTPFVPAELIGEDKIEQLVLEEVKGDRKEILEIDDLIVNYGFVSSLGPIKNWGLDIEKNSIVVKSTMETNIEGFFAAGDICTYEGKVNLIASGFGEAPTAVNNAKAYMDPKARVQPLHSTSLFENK", "assay": "steady-state product inhibition of NADPH:plumbagin reductase reaction", "format": "biochemical", "data": [{"smiles": "NC(=O)c1ccc[n+]([C@@H]2O[C@H](COP(=O)(O)OP(=O)(O)OC[C@H]3O[C@@H](n4cnc5c(N)ncnc54)[C@H](OP(=O)(O)O)[C@@H]3O)[C@@H](O)[C@H]2O)c1", "note": "[NADP^+]", "values": [{"measurement": "Ki", "result": "62.6 ± 10.5", "unit": "µM"}]}]}
